Assay results taken from US20120295920A1, “5-AMINO-4-HYDROXYPENTOYL AMIDES” (priority 2009, published 2012).
Like-named read-outs stand apart in the source and are kept apart here.

Columns and labels:
HIV-1 wild-type strain = assay: General antiviral assay, cell-based virus replication in MT4-LTR-EGFP cells, wild-type strain; settings: wild-type strain IIIB, MT4-LTR-EGFP cells
Protocol: (§1) MT4-LTR-EGFP cells were obtained by transfecting MT4 cells with a selectable construct encompassing the sequences coding for the HIV long terminal repeat (LTR) as a promoter for the expression of enhanced green fluorescent protein (EGFP) and subsequent selection of permanently transfected cells.
(§2) The antiviral activity on different HIV-1 strains, was determined in a cell-based virus replication assay. Here MT4-LTR-EGFP cells (150,000 cells/ml) are infected (multiplicity of infection [MOI] of 0.0025) in the presence or absence of different inhibitor concentrations. Two methodologies for read-out were used, either quantification of GFP-fluoresence on day 3 post-infection, or quantification of cell-viability using rezazurin (as described by Fields, R. D., and M. V. Lancaster (1993) Am. Biotechnol. Lab. 11:48-50) on day 4 post infection.

[1] = system: HIV-1 Strain A (M046I, I084V); assay: microbe, parasite or virus in culture; type: cell-based; settings: clinical isolate Strain A; read-out: A EC50
Protocol: as §1, §2
(§3) In the following Table, Strains A, B, and C are clinical isolates that include the following protease inhibitor resistance mutations in the protease domain (background mutations are not mentioned).

[2] = system: HIV-1 Strain B (M046I, I050V); assay: microbe, parasite or virus in culture; type: cell-based; settings: clinical isolate Strain B; read-out: B EC50
Protocol: as §1, §2, §3

[3] = system: HIV-1 Strain C (G048G/V, V082A); assay: microbe, parasite or virus in culture; type: cell-based; settings: clinical isolate Strain C; read-out: C EC50
Protocol: as §1, §2, §3

mock-infected MT4 cells = assay: General toxicity assay on mock-infected MT4 cells with CMV-EGFP reporter (CC50); type: cell-based
HIV-1 IIIB = assay: 50% HS-Rezazurin: antiviral assay in the presence of 50% human serum, MT-4 cells, resazurin cell viability; type: cell-based
Protocol: For the Antiviral assay in the presence of 50% human serum MT-4 cells were infected with HIV-1 IIIB at a MOI of 0.001 to 0.01 CCID50/cell in RPMI1640 medium. Following 1 h of incubation, cells were washed and plated into a 96-well plate containing serial dilutions of compound in the presence of 10% fetal calf serum (FCS), or 50% human serum. After 4 days incubation, the EC50 in the presence of 50% human serum was determined by a cell viability assay using resazurin.
The last column lists the results for the wild-type strain IIB in the presence of 50% human serum MT-4 cells.

[4] = mock-infected MT4 cells with CMV-EGFP reporter, read-out: TOX-MT4CMV (CC50)
[5] = MT4LTR cells, read-out: TOX-MT4LTR (CC50)

Row | SMILES | EC50 (HIV-1 wild-type strain) [nM] | EC50 [1] [nM] | EC50 [2] [nM] | EC50 [3] [nM] | CC50 (mock-infected MT4 cells; [4]) [nM] | EC50 (HIV-1 IIIB) [nM] | CC50 (mock-infected MT4 cells; [5]) [nM] | CC50 (mock-infected MT4 cells; read-out: TOX-MT4CMV (CC50)) [nM]
1 | COC(=O)NC(C(=O)NC(Cc1ccc(-c2ccc(N(C)C)nc2)cc1)C(O)CC(Cc1cccc(OC)c1)C(=O)NC1c2ccccc2OCC1O)C(C)(C)C (centres unmarked) [Compound 15] | 2 | 2.1 | 1.2 | 1.3 | > 32000 | 8.7 | – | –
2 | COC(=O)NC(C(=O)NC(Cc1ccc(-c2ccc(OC)nc2)cc1)C(O)CC(Cc1ccccc1F)C(=O)NC1c2ccccc2OCC1O)C(C)(C)C (centres unmarked) [Compound 16] | 2.5 | 2 | 1.3 | 1.1 | > 32000 | 6.6 | – | –
3 | COC(=O)NC(C(=O)NC(Cc1ccc(-c2ccc(OC)nc2)cc1)C(O)CC(Cc1cccc(OC)c1)C(=O)NC1c2ccccc2OCC1O)C(C)(C)C (centres unmarked) [Compound 17] | 1.9 | 2 | 1.2 | 1.1 | > 32000 | 6.4 | – | –
4 | COC(=O)NC(C(=O)NC(Cc1ccc(-c2ccc(OC)nc2)cc1)C(O)CC(Cc1ccccc1F)C(=O)NC1c2cc(Cl)ccc2OCC1O)C(C)(C)C (centres unmarked) [Compound 18] | 2.7 | 3 | 2 | 1.6 | > 32000 | 14 | > 32000 | –
5 | CN(C)c1ccc(-c2ccc(CC(NC(=O)C(NC(=O)CN3CCCC3)C(C)(C)C)C(O)CC(Cc3ccccc3F)C(=O)NC3c4cc(Cl)ccc4OCC3O)cc2)cn1 (centres unmarked) [Compound 19] | 5.3 | 3.7 | 2.4 | 1.8 | > 27000 | 22.1 | – | –
6 | COC(=O)NC(C(=O)NC(Cc1ccc(-c2cc(C)nc(C3CC3)c2)cc1)C(O)CC(Cc1ccccc1F)C(=O)NC1c2cc(Cl)ccc2OCC1O)C(C)(C)C (centres unmarked) [Compound 21] | 6.1 | 3.8 | 3.2 | 3.6 | > 32000 | 34.9 | – | –
7 | COC(=O)NC(C(=O)NC(Cc1ccc(-c2cnc(N(C)C)cn2)cc1)C(O)CC(Cc1ccccc1F)C(=O)NC1c2cc(Cl)ccc2OCC1O)C(C)(C)C (centres unmarked) [Compound 22] | 3.8 | 3.5 | 2.6 | 2.1 | > 32000 | 26.4 | – | –
8 | COC(=O)NC(C(=O)NC(Cc1ccc(-c2cnc(OC)cn2)cc1)C(O)CC(Cc1ccccc1F)C(=O)NC1c2cc(Cl)ccc2OCC1O)C(C)(C)C (centres unmarked) [Compound 23] | 3 | 3.7 | 2.4 | 2 | 19000 | 12.3 | – | –
9 | COC(=O)N[C@H](C(=O)N[C@@H](Cc1ccc(-c2cncc(N(C)C)n2)cc1)[C@@H](O)C[C@@H](Cc1ccccc1F)C(=O)N[C@H]1c2cc(Cl)ccc2OC[C@H]1O)C(C)(C)C [Compound 25] | 4.9 | 4.6 | 2.7 | 2.5 | > 32000 | 26.4 | – | –
10 | COC(=O)N[C@H](C(=O)N[C@@H](Cc1ccc(-c2ccc(N(C)C)nc2)cc1)[C@@H](O)C[C@@H](Cc1cccc(OC)c1)C(=O)N[C@H]1c2cc(F)ccc2OC[C@H]1O)C(C)(C)C [Compound 26] | 5 | 4.2 | 3.4 | 3.2 | > 32000 | 15.4 | – | –
11 | COC(=O)N[C@H](C(=O)N[C@@H](Cc1ccc(-c2ccc(OC)nc2)cc1)[C@@H](O)C[C@@H](Cc1cccc(OC)c1)C(=O)N[C@H]1c2cc(Cl)ccc2OC[C@H]1O)C(C)(C)C [Compound 27] | 3.1 | 2.8 | 2.2 | 1.6 | > 32000 | 10.7 | > 32000 | –
12 | COC(=O)N[C@H](C(=O)N[C@@H](Cc1ccc(-c2cnc(C3CC3)s2)cc1)[C@@H](O)C[C@@H](Cc1ccccc1F)C(=O)N[C@H]1c2cc(Cl)ccc2OC[C@H]1O)C(C)(C)C [Compound 28] | 3.2 | 3.1 | 2.1 | 1.4 | > 32000 | 22.5 | – | –
13 | COC(=O)N[C@H](C(=O)N[C@@H](Cc1ccc(-c2csc(OC)n2)cc1)[C@@H](O)C[C@@H](Cc1ccccc1F)C(=O)N[C@H]1c2cc(Cl)ccc2OC[C@H]1O)C(C)(C)C [Compound 29] | 5.5 | 6.6 | 3.4 | 3.1 | 10000 | 13.7 | – | –
14 | COC(=O)N[C@H](C(=O)N[C@@H](Cc1ccc(-c2cccc(OC)n2)cc1)[C@@H](O)C[C@@H](Cc1ccccc1F)C(=O)N[C@H]1c2cc(Cl)ccc2OC[C@H]1O)C(C)(C)C [Compound 30] | 4 | 5.9 | 2.8 | 2.5 | > 32000 | 17.4 | – | –
15 | COC(=O)N[C@H](C(=O)N[C@@H](Cc1ccc(-c2ccnc(C(F)(F)F)c2)cc1)[C@@H](O)C[C@@H](Cc1ccccc1F)C(=O)N[C@H]1c2cc(Cl)ccc2OC[C@H]1O)C(C)(C)C [Compound 31] | 7 | 5 | 3.2 | 3.4 | > 32000 | 26.4 | – | –
16 | COC(=O)N[C@H](C(=O)N[C@@H](Cc1ccc(-c2ccc(N(C)C)nc2)cc1)[C@@H](O)C[C@@H](Cc1ccccc1F)C(=O)N[C@H]1c2cc(F)ccc2OC[C@H]1O)C(C)(C)C [Compound 33] | 2.5 | 1.5 | 1 | 0.9 | > 32000 | 9.8 | – | –
17 | COCCOC(=O)N[C@H](C(=O)N[C@@H](Cc1ccc(-c2ccc(N(C)C)nc2)cc1)[C@@H](O)C[C@@H](Cc1ccccc1F)C(=O)N[C@H]1c2cc(F)ccc2OC[C@H]1O)C(C)(C)C [Compound 34] | 2.7 | 2 | 1.5 | 1.3 | > 32000 | 10 | > 32000 | –
18 | CN(C)c1ccc(-c2ccc(C[C@H](NC(=O)[C@@H](NC(=O)C3(C#N)CC3)C(C)(C)C)[C@@H](O)C[C@@H](Cc3ccccc3F)C(=O)N[C@H]3c4cc(F)ccc4OC[C@H]3O)cc2)cn1 [Compound 35] | 2.1 | 4 | 2.2 | 2 | – | 8.4 | > 32000 | > 32000
19 | COC(=O)N[C@H](C(=O)N[C@@H](Cc1ccc(-c2ccc(N(C)C)nc2)cc1)[C@@H](O)C[C@@H](Cc1cccc(F)c1)C(=O)N[C@H]1c2ccccc2OC[C@H]1O)C(C)(C)C [Compound 36] | 2.9 | 2.4 | 1.4 | 1.3 | > 32000 | 14.3 | > 32000 | –
